Results as given in patent publication US20260335299A1, “SUBSTITUTED OXOISOINDOLINYL PIPERIDINE-2,6-DIONE COMPOUND AS ANTICANCER AGENT” (BRISTOL-MYERS SQUIBB COMPANY, priority 2023, published 2026).

Legend:
[1] = biological target: T1, IKZF1 Ikaros (Homo sapiens, UniProt Q13422+Q96SW2); experiment: Human Regulatory T Cell Degradation Assay (Ikaros); format: cell-based; settings: human regulatory T cells, 20 h; concentration reducing protein level by 50% compared to DMSO alone
Protocol: Cryopreserved human regulatory T cells were thawed in RPMI+10% FBS+20 ng/mL IL-2. After being spun at 1200 rpm for 5 mins, the cells were resuspended in RPMI+10% FBS+20 ng/ml and rested at 37° C. with 5% CO2 for 3 hours. The cells were then plated at 40,000 cells/well in 40 μL RPMI+10% FBS+20 ng/mL human IL-2 in a 384 well cell culture plate prior to using acoustic dispensing technology (ECHO 555) for adding compounds of interest. Cell cultures were incubated for 20 hours at 37° C. and 5% CO2. In order to facilitate analysis, cell cultures were spun down at 1200 rpm for 5 minutes and the supernatant was discarded using an EL406 plate washer. After washing three times with […] PBS, cell pellets were resuspended in 50 μL of […] viability staining solution (Life Technologies, Cat #L34975) and incubated for 30 minutes on ice protected from light. Cells were washed three times with 70 μL PBS+0.5% BSA using an EL406 plate washer. After shaking the plate to dislodge the cell pellet, cells were resuspended in 50 μL of Fixation Buffer (eBioScience FoxP3 buffer set 00-5523-00) for 60 minutes at room temperature. After centrifuging and discarding the supernatant, cells were permeabilized with 50 μL of permeabilization buffer (eBioScience FoxP3 buffer set 00-5523-00) for 10 minutes at room temperature. Following permeabilization, cells were spun down and the supernatant was replaced with 30 μL fluorescently labelled antibodies against the intracellular targets Helios (Helios-APC [BioLegend, Cat #137222, 1:50])]), Aiolos, and Ikaros 1× Permeabilization buffer and staining reactions were incubated for 1 hour at room temperature; protected from light. Subsequently, […] Permeabilization buffer was added prior to centrifuging the cells and discarding the supernatant. Stained cells were resuspended in 30 μL of flow cytometry staining buffer (PBS+0.5% BSA) and analyzed using an Intellicyt Ique Plus flow cytometer.
(§1) Table B-1 lists the maximum observed degradation of the IKZF1 protein and IKZF2 protein as measured in the Human Regulatory T Cell Degradation assay. The results in Table B-1 were rounded to two digits. In the Human Regulatory T Cell Degradation assay, a value of 100% indicated no detectable protein remaining or complete degradation of the protein; and a value of 0% indicated no detectable degradation of the protein by the test compound.

[2] = biological target: T1, IKZF1 Ikaros; experiment: Jurkat Cellular Degradation Assay (Ikaros); format: cell-based; parameters: endogenous in cells; host or cells: Jurkat cells; settings: Jurkat cells, 72 h; concentration reducing protein level by 50% compared to DMSO alone
Protocol: (§2) Jurkat cells were plated at 80,000 cells/well in 40 μL RPMI+10% FBS in a 384-well cell culture plate prior to using acoustic dispensing technology for adding a compound of interest. Cell cultures were incubated for 72 h at 37° C. and 5% CO2. In order to facilitate analysis, cell cultures were spun down at 200 rpm for 5 min and the supernatant was discarded. After shaking the plate to dislodge the cell pellet, cells were resuspended in 50 μL of Fixation Buffer (eBioscience FoxP3 buffer set 00-5523-00) for 60 min at room temperature. After centrifuging and discarding the supernatant, cells were permeabilized with 50 μL of Permeabilization buffer (eBioscience FoxP3 buffer set 00-5523-00) for 10 min at room temperature. Following permeabilization, cells were spun down and the supernatant was replaced with 20 μL fluorescently labelled antibodies against Helios, Ikaros and Aiolos or corresponding Isotype controls in 1× Permeabilization buffer (Ikaros-Alexa488 [Biolegend, Cat #368408, 1:50], Helios-PE [CST, Cat #29360, 1:50], Aiolos-Alexa647 [Biolegend, Cat #371106 Biolegend, 1:25]) and staining reactions were incubated for 1 h at room temperature while protected from light. Subsequently, 30 μL of 1× Permeabilization buffer was added prior to centrifuging the cells and discarding the supernatant. Stained cells were resuspended in 25 μL of flow cytometry staining buffer [PBS+0.2% bovine serum albumin (BSA)] and analyzed using an Intellicyt Ique Plus flow cytometer.
(§3) Table A-1 lists the maximum observed degradation of the IKZF1 protein, IKZF2 protein, and IKZF3 protein as measured in the Jurkat Cellular Degradation assay. The results in Table A-I were rounded to two digits. In the Jurkat Cellular Degradation assay, a value of 100% indicated no detectable protein remaining or complete degradation of the protein; and a value of 0% indicated no detectable degradation of the protein by the test compound.

[3] = biological target: T2, IKZF3 Aiolos (Homo sapiens, UniProt Q96SW2+Q9UKT9); experiment: Jurkat Cellular Degradation Assay (Aiolos); format: cell-based; parameters: endogenous in cells; host or cells: Jurkat cells; settings: Jurkat cells, 72 h; concentration reducing protein level by 50% compared to DMSO alone
Protocol: as §2, §3

[4] = biological target: T1, IKZF1 Ikaros; experiment: Human CD8+ T Cell Reprogramming (Degradation) Assay (Ikaros); format: cell-based; parameters: Cryopreserved healthy donor human peripheral blood mononuclear cells (PBMC); endogenous in cells; host or cells: CD8+ T cells within healthy donor human PBMC; settings: CD8+ T cells, human PBMC, 24 h; concentration reducing protein level by 50% compared to DMSO alone
Protocol: (§4) Cryopreserved healthy donor human peripheral blood mononuclear cells (PBMC) from healthy donors were thawed and seeded at 500,000 cells/well of 96-well round bottom plates in RPMI 1640 media (Gibco) supplemented with 10% FBS, Pen/Strep (Gibco), MEM-NEAA (Gibco), and sodium pyruvate (Gibco). Cells were treated with titrated doses of compound for 24 hours at 37° C., 5% CO2 before analyzing by flow cytometry.
(§5) For flow cytometry staining, cells were washed twice with flow cytometry staining buffer (Thermo Fisher) and incubated in Human Tru-stain Fc block (Biolegend) for 10 minutes before adding eFluor780 viability dye (Thermo Fisher) and surface marker antibody cocktail containing LD-eFluor780, CD3-BUV-395, CD4-BUV805, CD8-FITC, and CD25-BV605 for 30 minutes at 4° C. Cells were then fixed and permeabilized by incubation with permeabilization buffer (eBioscience FoxP3 buffer set 00-5523-00) for 30 minutes at 4° C. as per the kit manufacturer's instructions. Cells were washed twice with the Perm/Wash buffer supplied in the kit as per the manufacturer's instructions and incubated overnight at 4° C. with an intracellular antibody cocktail comprised of antibodies specific for the transcription factors (i.e., Foxp3-BV421, HELIOS-PE-Cy7, EOS-PE, IKAROS-PECF594, AIOLOS-AF647). Cells were washed twice with Perm/Wash buffer and resuspended in flow cytometry staining buffer (Thermo Fisher) prior to acquisition. Sample acquisition and analysis was performed using a BD LSRFortessa (BD Biosciences) flow cytometer. Single-stain controls for each fluorochrome were prepared using UltraComp eBead Compensation Beads (Thermo Fisher). Data were analyzed using FlowJo version 10 and GraphPad Prism Software.
as §1, with “D-1” for “B-1”, “IKZF3” for “IKZF2”, “CD8^+” for “Regulatory”, “Reprogramming” for “Degradation”

[5] = biological target: T2, IKZF3 Aiolos; experiment: Human CD8+ T Cell Reprogramming (Degradation) Assay (Aiolos); format: cell-based; parameters: Cryopreserved healthy donor human peripheral blood mononuclear cells (PBMC); endogenous in cells; host or cells: CD8+ T cells within healthy donor human PBMC; settings: CD8+ T cells, human PBMC, 24 h; concentration reducing protein level by 50% compared to DMSO alone
Protocol: as §4, §5
as §1, with “D-1” for “B-1”, “IKZF3” for “IKZF2”, “CD8^+” for “Regulatory”, “Reprogramming” for “Degradation”

[6] = test system: solid tumors; settings: sometimes; patients with solid tumors / advanced malignancies; cited from earlier work

T2 sequence (Q9UKT9 whole entry): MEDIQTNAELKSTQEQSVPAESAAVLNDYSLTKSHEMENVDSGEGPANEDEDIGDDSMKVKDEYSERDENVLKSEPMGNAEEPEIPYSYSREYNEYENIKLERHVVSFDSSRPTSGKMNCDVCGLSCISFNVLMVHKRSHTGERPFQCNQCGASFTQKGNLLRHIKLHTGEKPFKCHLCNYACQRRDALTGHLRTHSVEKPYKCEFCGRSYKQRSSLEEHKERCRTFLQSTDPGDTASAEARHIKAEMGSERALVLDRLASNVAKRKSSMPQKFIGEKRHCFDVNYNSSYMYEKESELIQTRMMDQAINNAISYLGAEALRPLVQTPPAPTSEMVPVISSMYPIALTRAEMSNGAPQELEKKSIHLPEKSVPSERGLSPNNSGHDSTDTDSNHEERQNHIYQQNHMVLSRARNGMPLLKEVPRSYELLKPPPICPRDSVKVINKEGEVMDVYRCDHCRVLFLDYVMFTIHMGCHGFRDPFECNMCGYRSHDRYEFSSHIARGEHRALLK
T2 sequence (Q96SW2 whole entry): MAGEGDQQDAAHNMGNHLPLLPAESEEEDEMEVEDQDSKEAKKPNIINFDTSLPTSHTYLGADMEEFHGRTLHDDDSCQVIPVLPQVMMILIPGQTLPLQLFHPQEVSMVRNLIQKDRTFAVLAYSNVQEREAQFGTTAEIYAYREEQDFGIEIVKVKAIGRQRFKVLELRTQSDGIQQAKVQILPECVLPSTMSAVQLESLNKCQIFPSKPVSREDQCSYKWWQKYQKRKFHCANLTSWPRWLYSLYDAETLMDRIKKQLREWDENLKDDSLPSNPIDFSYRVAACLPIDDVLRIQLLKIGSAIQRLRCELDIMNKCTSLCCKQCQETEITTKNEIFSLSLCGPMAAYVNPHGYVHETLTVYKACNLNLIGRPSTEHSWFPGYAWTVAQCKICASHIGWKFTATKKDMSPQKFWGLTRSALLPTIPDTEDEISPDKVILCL
T2 sequence (Q16531 whole entry partner): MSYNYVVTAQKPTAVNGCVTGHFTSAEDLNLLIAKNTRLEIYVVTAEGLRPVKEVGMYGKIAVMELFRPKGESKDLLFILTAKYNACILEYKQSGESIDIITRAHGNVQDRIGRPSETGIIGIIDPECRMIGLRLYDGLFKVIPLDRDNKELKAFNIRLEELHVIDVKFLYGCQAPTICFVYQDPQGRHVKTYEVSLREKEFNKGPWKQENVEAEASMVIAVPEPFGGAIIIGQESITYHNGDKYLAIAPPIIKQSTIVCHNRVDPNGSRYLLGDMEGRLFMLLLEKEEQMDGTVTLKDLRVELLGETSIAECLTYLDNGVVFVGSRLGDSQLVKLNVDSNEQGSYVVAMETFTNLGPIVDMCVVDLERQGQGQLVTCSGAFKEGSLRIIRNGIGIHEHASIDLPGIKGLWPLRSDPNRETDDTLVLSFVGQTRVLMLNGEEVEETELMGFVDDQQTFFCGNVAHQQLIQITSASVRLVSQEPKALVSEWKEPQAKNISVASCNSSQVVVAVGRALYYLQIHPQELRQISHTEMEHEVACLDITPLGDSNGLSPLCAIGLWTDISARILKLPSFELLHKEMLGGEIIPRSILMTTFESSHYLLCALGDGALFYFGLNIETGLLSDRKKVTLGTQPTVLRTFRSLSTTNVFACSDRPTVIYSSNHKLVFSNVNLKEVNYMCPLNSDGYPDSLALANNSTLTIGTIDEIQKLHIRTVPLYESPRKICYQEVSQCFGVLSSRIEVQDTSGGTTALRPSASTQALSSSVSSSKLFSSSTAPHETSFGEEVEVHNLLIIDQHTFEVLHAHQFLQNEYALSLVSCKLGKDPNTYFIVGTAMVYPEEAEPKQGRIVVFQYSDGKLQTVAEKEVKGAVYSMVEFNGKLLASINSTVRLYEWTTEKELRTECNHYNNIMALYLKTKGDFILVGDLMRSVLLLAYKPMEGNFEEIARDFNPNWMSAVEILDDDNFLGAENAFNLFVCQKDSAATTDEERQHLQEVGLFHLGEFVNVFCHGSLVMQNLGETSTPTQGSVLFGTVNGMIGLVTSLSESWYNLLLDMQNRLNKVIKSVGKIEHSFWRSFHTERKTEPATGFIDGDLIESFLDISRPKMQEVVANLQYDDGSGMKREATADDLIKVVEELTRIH
T1 sequence (Q13422 whole entry): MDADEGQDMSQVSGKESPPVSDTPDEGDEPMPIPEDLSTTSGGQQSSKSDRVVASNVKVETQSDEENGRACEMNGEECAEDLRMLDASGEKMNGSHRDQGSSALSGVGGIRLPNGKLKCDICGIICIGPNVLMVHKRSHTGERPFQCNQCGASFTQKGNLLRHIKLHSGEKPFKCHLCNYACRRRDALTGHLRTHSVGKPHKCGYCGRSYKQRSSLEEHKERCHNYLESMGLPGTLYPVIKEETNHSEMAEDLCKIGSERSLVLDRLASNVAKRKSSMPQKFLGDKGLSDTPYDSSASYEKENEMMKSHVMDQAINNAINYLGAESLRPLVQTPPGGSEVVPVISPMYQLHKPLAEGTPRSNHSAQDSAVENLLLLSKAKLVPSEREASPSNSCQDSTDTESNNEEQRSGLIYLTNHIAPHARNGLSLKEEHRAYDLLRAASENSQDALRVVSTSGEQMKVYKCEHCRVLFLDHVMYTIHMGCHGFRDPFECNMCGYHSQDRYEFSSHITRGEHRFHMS
T1 sequence (Q96SW2 whole entry): as the sequence (Q96SW2 whole entry) above
T1 sequence (Q16531 whole entry partner): as the sequence (Q16531 whole entry partner) above

| DC50 [1] | DC50 [2] | DC50 [3] | DC50 [4] | DC50 [5] | SMILES | clinical response in patients with solid tumors [6] |
| --- | --- | --- | --- | --- | --- | --- |
| > 10 µM | > 10 µM | > 10 µM | > 1000 nM | > 1000 nM | O=C1CCC(N2Cc3c(ccc(-c4cc(CN5CC(c6ccccc6)C5)ccn4)c3F)C2=O)C(=O)N1 (stereo not shown) [Comparative Compound A, 3-(4-fluoro-1-oxo-5-(4-((3-phenylazetidin-1-yl)methyl)pyridin-2-yl)isoindolin-2-yl) piperidine-2,6-dione, reference compound] |  |
| > 10 µM | > 10 µM | > 10 µM | > 1000 nM | > 1000 nM | Nc1nc(-c2ccc3c(c2)CN(C2CCC(=O)NC2=O)C3=O)ccc1CN1CC2(CCC2)C1 (stereo not shown) [Comparative Compound B, 3-(5-(5-((2-azaspiro[3.3]heptan-2-yl)methyl)-6-aminopyridin-2-yl)-1-oxoisoindolin-2-yl) piperidine-2,6-dione, reference compound] |  |
|  |  |  |  |  | Cc1nc2cccc(N)c2c(=O)n1C1CCC(=O)NC1=O (stereo not shown) [avadomide] | modest responses of stable disease |
|  |  |  |  |  | Nc1cccc2c1CN(C1CCC(=O)NC1=O)C2=O (stereo not shown) [lenalidomide] | modest responses of stable disease |
|  |  |  |  |  | Nc1cccc2c1C(=O)N(C1CCC(=O)NC1=O)C2=O (stereo not shown) [pomalidomide] | modest responses of stable disease |
